The test system of series [1] is Hepatotoxicity.
Series [2] concerns Hepatotoxicity. The source holds these as a separate data set.
Series [3] concerns Hepatotoxicity. This is another data set of the same source.
In series [4] the test system is Hepatotoxicity. The source holds these as a separate data set.
Series [5] concerns Hepatotoxicity. The source holds these as a separate data set.
The subject of series [6] is Hepatotoxicity. The source holds these as a separate data set.
Series [7] relates to Hepatotoxicity. This is another data set of the same source.
The subject of series [8] is Hepatotoxicity. The source holds these as a separate data set.
Series [9] deals with Hepatotoxicity. The source holds these as a separate data set.
The test system of series [10] is Hepatotoxicity. This is another data set of the same source.
Series [11] relates to Hepatotoxicity. This is another data set of the same source.
Series [12] concerns Hepatotoxicity. This is another data set of the same source.
The subject of series [13] is Hepatotoxicity. The source holds these as a separate data set.
Series [14] concerns Hepatotoxicity. The source holds these as a separate data set.

Each structure is given as a SMILES string.
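Throughout, for HepSE Combined Scores: combined hepatic side effect score as listed in the training data of the Drug Induced Liver Injury Prediction System (DILIps).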
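Throughout, for HepSE bilirubinemia: bilirubinemia hepatic side effect score drawn from the DILIps training data, a prediction system for drug-induced liver injury; call rule not given here.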
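Throughout, for HepSE cholecystitis: Cholecystitis-related hepatic side effect score drawn from the DILIps (drug-induced liver injury prediction) training data set; call rule not given here.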
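Throughout, for HepSE cholelithiasis: hepatic side effect score for cholelithiasis, drawn from the DILIps training data for predicting drug-induced liver injury; call rule not given here.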
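Throughout, for HepSE cirrhosis: cirrhosis hepatic side effect score taken from the DILIps (drug-induced liver injury prediction) training set; call rule not given here.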
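Throughout, for HepSE elevated liver function tests: hepatic side effect score for raised liver function tests, as recorded in the DILIps training set used for predicting drug-induced liver injury.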
Throughout, for HepSE hepatic failure: call rule not given here.
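Throughout, for HepSE hepatic necrosis: score of hepatic side effects for hepatic necrosis, drawn from the training data of DILIps, a prediction system for drug-induced liver injury; call rule not given here.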
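Throughout, for HepSE hepatitis: Hepatitis-related hepatic side effect score taken from the training data of DILIps, a prediction system for drug-induced liver injury; call rule not given here.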
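Throughout, for HepSE hepatomegaly: hepatic side effect score for hepatomegaly, taken from the training set of the DILIps drug-induced liver injury prediction system; call rule not given here.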
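Throughout, for HepSE jaundice: Jaundice-related hepatic side-effect score drawn from the training data of the DILIps (drug-induced liver injury prediction system); call rule not given here.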
Throughout, for HepSE liver disease: call rule not given here.
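Throughout, for HepSE liver fatty: hepatic side effect score for fatty liver, taken from the DILIps training set for predicting drug-induced liver injury; call rule not given here.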
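Throughout, for HepSE liver function tests abnormal: hepatic side effect score taken from the DILIps (drug-induced liver injury prediction system) training data, here covering abnormal liver function test findings.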

`CC[C@H]1OC(=O)[C@H](C)[C@@H](O[C@H]2C[C@@](C)(OC)[C@@H](O)[C@H](C)O2)[C@H](C)[C@@H](O[C@@H]2O[C@H](C)C[C@H](N(C)C)[C@H]2O)[C@](C)(O)C[C@@H](C)C(=O)[C@H](C)[C@@H](O)[C@]1(C)O` [ERYTHROMYCIN]: in the series with Hepatotoxicity [1], the HepSE_liver fatty is 0. Moreover, the HepSE_hepatomegaly with Hepatotoxicity [2] turned out to be 0. The HepSE_hepatic failure in the series on Hepatotoxicity [3] is 0. Besides, the “HepSE_Combined Scores” value in the series on Hepatotoxicity [4] is 1. The HepSE_jaundice in the series with Hepatotoxicity [5] came out at 0. In addition, the HepSE_liver disease with Hepatotoxicity [6] is listed as 0. The same compound displayed a HepSE_cirrhosis in the series with Hepatotoxicity [7] of 0. Further, the HepSE_bilirubinemia in the series with Hepatotoxicity [8] worked out at 0. Further, the “HepSE_elevated liver function tests” value in the series with Hepatotoxicity [9] is 0. Moreover, the HepSE_cholelithiasis in the series with Hepatotoxicity [10] is 0. This compound also came in with a HepSE_hepatitis with Hepatotoxicity [11] of 1. This compound also displayed a HepSE_cholecystitis in the series on Hepatotoxicity [12] of 0. Further, the “HepSE_liver function tests abnormal” value with Hepatotoxicity [13] stood at 0. Moreover, the HepSE_hepatic necrosis in the series on Hepatotoxicity [14] is listed as 0.
As for `O=C(O)Cc1ccccc1Nc1c(Cl)cccc1Cl` [DICLOFENAC], the HepSE_liver fatty in the series with Hepatotoxicity [1] (Liver) is listed as 0. This compound registered a HepSE_hepatomegaly in the series with Hepatotoxicity [2] (Liver) of 0. The HepSE_hepatic failure with Hepatotoxicity [3] (Liver) came out at 1. Also, in the series with Hepatotoxicity [4] (Liver), the “HepSE_Combined Scores” value was 5. Further, in the series with Hepatotoxicity [5] (Liver), the HepSE_jaundice amounted to 1. In the series on Hepatotoxicity [6] (Liver), the HepSE_liver disease is 0. The HepSE_cirrhosis in the series on Hepatotoxicity [7] (Liver) came out at 1. The same compound showed a HepSE_bilirubinemia in the series with Hepatotoxicity [8] (Liver) of 0. Moreover, in the series on Hepatotoxicity [9] (Liver), the “HepSE_elevated liver function tests” value is reported as 0. This compound also displayed a HepSE_cholelithiasis in the series on Hepatotoxicity [10] (Liver) of 0. This compound gave a HepSE_hepatitis in the series on Hepatotoxicity [11] (Liver) of 1. In addition, in the series on Hepatotoxicity [12] (Liver), the HepSE_cholecystitis came to 0. For the same compound, the “HepSE_liver function tests abnormal” value in the series on Hepatotoxicity [13] (Liver) came to 0. The HepSE_hepatic necrosis in the series with Hepatotoxicity [14] (Liver) is 1.
For `O.O=P(O)(O)C(O)(Cn1ccnc1)P(=O)(O)O` [ZOLEDRONIC ACID], the HepSE_liver fatty in the series with Hepatotoxicity [1] is reported as 0. The compound also showed a HepSE_hepatomegaly with Hepatotoxicity [2] of 0. The compound further displayed a HepSE_hepatic failure with Hepatotoxicity [3] of 0. The “HepSE_Combined Scores” value in the series with Hepatotoxicity [4] was 1. For the same compound, the HepSE_jaundice in the series on Hepatotoxicity [5] is 0. Moreover, in the series on Hepatotoxicity [6], the HepSE_liver disease was 0. The same compound gave a HepSE_cirrhosis with Hepatotoxicity [7] of 0. Besides, the HepSE_bilirubinemia in the series on Hepatotoxicity [8] worked out at 0. Besides, in the series with Hepatotoxicity [9], the “HepSE_elevated liver function tests” value is 0. In the series with Hepatotoxicity [10], the HepSE_cholelithiasis came out at 0. The HepSE_hepatitis with Hepatotoxicity [11] worked out at 0. Besides, the HepSE_cholecystitis in the series with Hepatotoxicity [12] is 0. Also, in the series on Hepatotoxicity [13], the “HepSE_liver function tests abnormal” value stood at 1. This compound had a HepSE_hepatic necrosis with Hepatotoxicity [14] of 0.
As to `C[C@]12COC(=O)C[C@@H]1CC[C@@H]1[C@@H]2CC[C@@]2(C)[C@H]1CC[C@]2(C)O` [OXANDROLONE], in the series on Hepatotoxicity [1], the HepSE_liver fatty was determined as 0. Also, in the series on Hepatotoxicity [2], the HepSE_hepatomegaly is recorded as 0. Besides, the HepSE_hepatic failure with Hepatotoxicity [3] is 0. In addition, the “HepSE_Combined Scores” value in the series with Hepatotoxicity [4] is recorded as 2. Moreover, the HepSE_jaundice with Hepatotoxicity [5] is 1. The compound further returned a HepSE_liver disease with Hepatotoxicity [6] of 0. Further, the HepSE_cirrhosis with Hepatotoxicity [7] amounted to 0. The same compound showed a HepSE_bilirubinemia in the series on Hepatotoxicity [8] of 0. Further, the “HepSE_elevated liver function tests” value in the series with Hepatotoxicity [9] is reported as 0. The compound also came in with a HepSE_cholelithiasis with Hepatotoxicity [10] of 0. Besides, the HepSE_hepatitis in the series on Hepatotoxicity [11] is listed as 0. For the same compound, the HepSE_cholecystitis in the series with Hepatotoxicity [12] was 0. For the same compound, the “HepSE_liver function tests abnormal” value in the series on Hepatotoxicity [13] is listed as 0. Further, the HepSE_hepatic necrosis with Hepatotoxicity [14] came to 1.
Consider `O=C(CCCN1CCC(O)(c2ccc(Cl)cc2)CC1)c1ccc(F)cc1` [HALOPERIDOL], for which the HepSE_liver fatty with Hepatotoxicity [1] is given as 0. For the same compound, in the series with Hepatotoxicity [2], the HepSE_hepatomegaly stood at 0. In addition, the HepSE_hepatic failure with Hepatotoxicity [3] is on record as 0. Besides, in the series on Hepatotoxicity [4], the “HepSE_Combined Scores” value was found to be 1. Further, in the series with Hepatotoxicity [5], the HepSE_jaundice worked out at 1. Further, in the series with Hepatotoxicity [6], the HepSE_liver disease turned out to be 0. Further, in the series on Hepatotoxicity [7], the HepSE_cirrhosis is 0. In the series on Hepatotoxicity [8], this compound showed a HepSE_bilirubinemia of 0. Further, the “HepSE_elevated liver function tests” value in the series with Hepatotoxicity [9] was 0. Moreover, the HepSE_cholelithiasis with Hepatotoxicity [10] stood at 0. In the series on Hepatotoxicity [11], this compound gave a HepSE_hepatitis of 0. In the series with Hepatotoxicity [12], this compound yielded a HepSE_cholecystitis of 0. The “HepSE_liver function tests abnormal” value in the series on Hepatotoxicity [13] came out at 0. The compound further yielded a HepSE_hepatic necrosis with Hepatotoxicity [14] of 0.
For the compound `C[N+](C)(C)CCOC(=O)CCC(=O)OCC[N+](C)(C)C` [SUXAMETHONIUM], in the series with Hepatotoxicity [1], the HepSE_liver fatty is 0. The HepSE_hepatomegaly in the series on Hepatotoxicity [2] is listed as 0. Moreover, the HepSE_hepatic failure in the series on Hepatotoxicity [3] is recorded as 0. In addition, the “HepSE_Combined Scores” value with Hepatotoxicity [4] is 0. Further, the HepSE_jaundice with Hepatotoxicity [5] is 0. This compound also registered a HepSE_liver disease with Hepatotoxicity [6] of 0. The compound also returned a HepSE_cirrhosis in the series with Hepatotoxicity [7] of 0. The compound further returned a HepSE_bilirubinemia with Hepatotoxicity [8] of 0. Moreover, the “HepSE_elevated liver function tests” value in the series on Hepatotoxicity [9] was determined as 0. Also, in the series on Hepatotoxicity [10], the HepSE_cholelithiasis was 0. The HepSE_hepatitis with Hepatotoxicity [11] was 0. The same compound returned a HepSE_cholecystitis with Hepatotoxicity [12] of 0. The “HepSE_liver function tests abnormal” value in the series with Hepatotoxicity [13] came out at 0. The compound also displayed a HepSE_hepatic necrosis with Hepatotoxicity [14] of 0.
As for `O=c1[nH]c2ccccc2n1CCCN1CCC(n2c(=O)[nH]c3cc(Cl)ccc32)CC1` [DOMPERIDONE], in the series with Hepatotoxicity [1], the HepSE_liver fatty is listed as 0. For the same compound, in the series on Hepatotoxicity [2], the HepSE_hepatomegaly is 0. The HepSE_hepatic failure in the series with Hepatotoxicity [3] was 0. For the same compound, the “HepSE_Combined Scores” value in the series with Hepatotoxicity [4] was determined as 0. In addition, in the series with Hepatotoxicity [5], the HepSE_jaundice came out at 0. In addition, in the series with Hepatotoxicity [6], the HepSE_liver disease amounted to 0. For the same compound, the HepSE_cirrhosis in the series with Hepatotoxicity [7] is 0. In addition, in the series on Hepatotoxicity [8], the HepSE_bilirubinemia is listed as 0. In addition, in the series on Hepatotoxicity [9], the “HepSE_elevated liver function tests” value came out at 0. The compound further yielded a HepSE_cholelithiasis in the series with Hepatotoxicity [10] of 0. For the same compound, in the series with Hepatotoxicity [11], the HepSE_hepatitis came to 0. Further, the HepSE_cholecystitis with Hepatotoxicity [12] is on record as 0. Also, the “HepSE_liver function tests abnormal” value with Hepatotoxicity [13] came to 0. Besides, in the series on Hepatotoxicity [14], the HepSE_hepatic necrosis is given as 0.
The compound `CCCC(C)(COC(N)=O)COC(=O)NC(C)C` (stereo unspecified) [CARISOPRODOL] showed a HepSE_liver fatty in the series on Hepatotoxicity [1] of 0. This compound yielded a HepSE_hepatomegaly with Hepatotoxicity [2] of 0. In the series on Hepatotoxicity [3], this compound showed a HepSE_hepatic failure of 0. Also, the “HepSE_Combined Scores” value in the series with Hepatotoxicity [4] is 0. The compound further displayed a HepSE_jaundice with Hepatotoxicity [5] of 0. In the series on Hepatotoxicity [6], this compound returned a HepSE_liver disease of 0. This compound also returned a HepSE_cirrhosis in the series on Hepatotoxicity [7] of 0. In the series with Hepatotoxicity [8], this compound yielded a HepSE_bilirubinemia of 0. For the same compound, the “HepSE_elevated liver function tests” value in the series on Hepatotoxicity [9] is on record as 0. Besides, in the series on Hepatotoxicity [10], the HepSE_cholelithiasis is recorded as 0. For the same compound, the HepSE_hepatitis in the series with Hepatotoxicity [11] stood at 0. Also, the HepSE_cholecystitis with Hepatotoxicity [12] turned out to be 0. Also, the “HepSE_liver function tests abnormal” value in the series with Hepatotoxicity [13] came out at 0. Moreover, the HepSE_hepatic necrosis with Hepatotoxicity [14] came to 0.
Consider `C[C@@H]1C[C@H]2[C@@H]3CCC4=CC(=O)C=C[C@]4(C)[C@@]3(F)[C@@H](O)C[C@]2(C)[C@@]1(O)C(=O)CO` [DEXAMETHASONE], for which, in the series with Hepatotoxicity [1], the HepSE_liver fatty is listed as 0. This compound showed a HepSE_hepatomegaly in the series on Hepatotoxicity [2] of 1. Further, the HepSE_hepatic failure in the series with Hepatotoxicity [3] is on record as 0. Besides, the “HepSE_Combined Scores” value in the series on Hepatotoxicity [4] is listed as 1. Further, in the series with Hepatotoxicity [5], the HepSE_jaundice was found to be 0. The compound also registered a HepSE_liver disease in the series on Hepatotoxicity [6] of 0. In addition, the HepSE_cirrhosis with Hepatotoxicity [7] is 0. The compound further registered a HepSE_bilirubinemia in the series with Hepatotoxicity [8] of 0. The “HepSE_elevated liver function tests” value in the series with Hepatotoxicity [9] turned out to be 0. In the series with Hepatotoxicity [10], the HepSE_cholelithiasis is on record as 0. The compound also came in with a HepSE_hepatitis with Hepatotoxicity [11] of 0. Also, the HepSE_cholecystitis with Hepatotoxicity [12] turned out to be 0. Further, the “HepSE_liver function tests abnormal” value with Hepatotoxicity [13] is on record as 0. This compound gave a HepSE_hepatic necrosis with Hepatotoxicity [14] of 0.

The values are drawn from ChEMBL document CHEMBL1909294, “Translating clinical findings into knowledge in drug safety evaluation--drug induced liver injury prediction system (DILIps)” (PLoS Comput Biol, 2011).
